# In patent publication US20250177422A1 (ZYLORION HEALTH INC., priority 2023, published 2025):
# Key:
# [1] = tested on: mice; assay: Cognitive performance, the Y-maze; type: in vivo; settings: oral, 15 days, FIG. 4
# Description: Cognitive performance, the Y-maze. Mice will be acclimated to a Y-maze having two familiar arms and one unfamiliar arm 1 day prior to testing (i.e., day-1). One the days of testing mice will be placed in the Y-maze and allowed to freely explore for 5 minutes. Behaviours scored will include total locomotion, time spent in each arm, number of arm entries, and correct alternations between the novel arm and familiar arms. A pro-cognitive effect will be reflected by increased time spent in the novel arm and increased percent correct alternations.
# [2] = tested on: active neurons; assay: Neuronal activation in mice (number of active neurons); settings: 21 days oral, co-crystal form A 3 mg/kg, aripiprazole 0.3 mg/kg, FIG. 7
# Description: For immunohistochemistry sampling, EdU (5-Ethynyl-2′-deoxyuridine, Lumiprobe, 100 μg/g) was injected together with the drugs for the first 7 days. On the day following the 14-day treatment period, the brains of the mice were dissected for subsequent analyses, including immunohistochemistry and electrophysiology (E-phys).
# [3] = tested on: neuronal progenitor/stem cell levels in mice brain; assay: Neuronal progenitor/stem cell levels in mice brain (immunohistochemistry); type: in vivo; settings: 14 days oral; co-crystal form A 3 mg/kg, aripiprazole 0.3 mg/kg; FIG. 6
# [4] = tested on: BDNF; assay: Brain levels of BDNF in mice after acute treatment; type: in vivo; settings: 1 hour after oral administration, Co-crystal Form A 3 mg/kg, Aripiprazole 0.3 mg/kg, FIG. 5
structure (smiles),measurement,setting,value
O=C1CCc2ccc(OCCCCN3CCN(c4cccc(Cl)c4Cl)CC3)cc2N1 [aripiprazole],"short-term and working memory (Y-maze), compared to control",[1],smaller but significant increase
same,change in neuronal activation (number of active neurons),[2],significant increase
same,neuronal progenitor/stem cell levels in mice brain,[3],no significant effect
same,brain levels of BDNF,[4],significant increase in brain levels of BDNF
